The numbers were not newly measured in PMC9574858, “Linker-Dependent Folding Rationalizes PROTAC Cell Permeability” (Journal of Medicinal Chemistry, 2022), which cites them from elsewhere.

The target in this data set is CRBN (Homo sapiens, UniProt Q96SW2). Details: method as in PMID 29358579.
Sequence of CRBN (Q96SW2 whole entry): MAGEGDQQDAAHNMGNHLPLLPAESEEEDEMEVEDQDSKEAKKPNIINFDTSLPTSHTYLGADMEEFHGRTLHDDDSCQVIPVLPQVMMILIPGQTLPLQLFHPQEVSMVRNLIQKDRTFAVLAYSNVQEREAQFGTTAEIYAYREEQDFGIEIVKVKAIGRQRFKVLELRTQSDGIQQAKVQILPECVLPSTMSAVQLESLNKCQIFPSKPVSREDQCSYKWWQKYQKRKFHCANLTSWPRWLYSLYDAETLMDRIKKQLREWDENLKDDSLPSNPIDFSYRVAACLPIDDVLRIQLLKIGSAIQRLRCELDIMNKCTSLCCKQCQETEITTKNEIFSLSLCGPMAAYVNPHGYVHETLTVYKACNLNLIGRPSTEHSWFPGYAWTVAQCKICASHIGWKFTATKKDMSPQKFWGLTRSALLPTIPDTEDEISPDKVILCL

For the compound `O=C1CC[C@H](N2C(=O)c3ccccc3C2=O)C(=O)N1` [S-form of thalidomide, thalidomide], the “affinity for CRBN compared with the R-form” value is recorded as 1 order of magnitude higher.
